The record followed here is ChEMBL document CHEMBL5604063, “ASAP - DENV-2 NS2B-NS3 protease fluorescence dose response” (2024).

A word on the IC50: it is the concentration that inhibits the measured activity by half. Low readings indicate inhibition by little substance, high ones a need for much substance.

The target in assay [1] is T1, Genome polyprotein (dengue virus type 2, UniProt P29990). In kind it is functional, Thailand/16681/1984.
Assay [2] has as its target T1, Genome polyprotein. In kind it is functional, Thailand/16681/1984. The source holds these as a separate data set.

T1 sequence (P29990 1346-1475 limits assumed): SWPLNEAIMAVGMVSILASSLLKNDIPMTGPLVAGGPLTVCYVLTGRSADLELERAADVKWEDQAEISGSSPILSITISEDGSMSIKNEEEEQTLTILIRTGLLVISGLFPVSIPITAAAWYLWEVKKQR
T1 sequence (P29990 1476-2093 limits assumed): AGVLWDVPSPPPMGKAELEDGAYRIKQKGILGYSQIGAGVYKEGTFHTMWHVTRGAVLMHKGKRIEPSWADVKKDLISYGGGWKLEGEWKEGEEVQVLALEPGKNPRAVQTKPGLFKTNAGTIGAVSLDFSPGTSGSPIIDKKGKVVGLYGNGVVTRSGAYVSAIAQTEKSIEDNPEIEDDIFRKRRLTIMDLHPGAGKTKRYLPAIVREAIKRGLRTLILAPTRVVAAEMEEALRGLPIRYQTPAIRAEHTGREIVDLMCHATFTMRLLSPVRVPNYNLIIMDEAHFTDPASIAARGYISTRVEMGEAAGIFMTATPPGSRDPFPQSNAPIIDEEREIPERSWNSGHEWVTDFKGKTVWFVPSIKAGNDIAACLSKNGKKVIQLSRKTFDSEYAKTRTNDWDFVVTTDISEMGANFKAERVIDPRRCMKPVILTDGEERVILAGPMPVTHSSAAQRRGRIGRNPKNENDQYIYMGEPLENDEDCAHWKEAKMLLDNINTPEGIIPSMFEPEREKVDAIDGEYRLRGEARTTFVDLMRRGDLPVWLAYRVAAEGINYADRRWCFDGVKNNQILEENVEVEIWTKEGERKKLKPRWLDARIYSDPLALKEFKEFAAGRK

Regarding `CC(C)c1noc2nc(C3CC3)cc(C(=O)Nc3cccc(CN)c3)c12`, the results for the IC50 in assay [1] and in assay [2] were greater than 99.5 µM and greater than 100 µM, respectively.

As for `NCc1ccc(NS(=O)(=O)c2ccc(Oc3ccccc3Cl)cc2)cc1`, the IC50 in assay [1] is greater than 99.5 µM; in assay [2], greater than 100 µM.

For the compound `CC(C)c1ncc(OC2CCC2)c(C(=O)Nc2cccc(CN)c2)n1`, the results for the IC50 in assay [1] and in assay [2] were greater than 99.5 µM and greater than 100 µM, respectively.

`Cc1c(CN)cccc1NS(=O)(=O)c1ccc(Oc2ccccc2Cl)cc1`: the IC50 is greater than 99.5 µM in assay [1] and greater than 100 µM in assay [2].

On to `N[C@H]1CCc2ncc(NS(=O)(=O)c3ccc(Oc4ccccc4Cl)cc3)cc2C1`, for which the IC50 was greater than 99.5 µM in assay [1] and greater than 100 µM in assay [2].

Turning to `O=C(Nc1cc(Cl)cc(C(=O)Nc2cccc([C@H]3CCCCN3)c2)c1)OCc1ccccc1`, the IC50 is greater than 99.5 µM in assay [1] and greater than 100 µM in assay [2].

As for `Cc1cc(=O)c(C(=O)Nc2cccc(CN)c2)nn1-c1ccccc1C(F)(F)F`, the results for the IC50 in assay [1] and in assay [2] were greater than 99.5 µM and greater than 100 µM, respectively.

Consider `C[C@H]1CCN1C(=O)Cn1ccnc(N2CC[C@H](CO)C2)c1=O`, for which the IC50 in assay [1] was greater than 99.5 µM; in assay [2], greater than 100 µM.

As for `NCc1ccncc1NS(=O)(=O)c1ccc(Oc2ccccc2Cl)cc1`, the values for the IC50 in assay [1] and in assay [2] were 37.1 µM and greater than 100 µM, respectively.

For the compound `NCc1cccc(NC(=O)c2cc(C3CCCCC3)nc3ccc(F)cc23)c1`, the IC50 in assay [1] was greater than 99.5 µM; in assay [2], greater than 100 µM.

With `NCc1cccc(NC(=O)c2cccc(Oc3ccc(Cl)c(Cl)c3)n2)c1`, the figures for the IC50 in assay [1] and in assay [2] were 95.6 µM and greater than 100 µM, respectively.

Take `NCc1cccc(NC(=O)c2cc(C3CC3)nc3c(Cl)cnn23)c1`: the values for the IC50 in assay [1] and in assay [2] were greater than 99.5 µM and greater than 100 µM, respectively.

Take `NCc1cccc(NC(=O)c2cccn3cc(CN4CCCC4)nc23)c1`: the IC50 is greater than 99.5 µM in assay [1] and greater than 100 µM in assay [2].

Consider `CC(C)Oc1cc(CN)ccc1NS(=O)(=O)c1ccc(Oc2ccccc2Cl)cc1`, for which the IC50 in assay [1] is greater than 99.5 µM; in assay [2], greater than 100 µM.

Consider `NCc1cccc(NC(=O)Cc2cccc(Oc3ccncc3Br)c2)c1`, for which the IC50 in assay [1] was greater than 99.5 µM; in assay [2], greater than 100 µM.

Regarding `O=C(Nc1cc(Cl)cc(C(=O)Nc2ccnc(OC3CNC3)c2)c1)OCc1ccccc1`, the concentration for half-maximal inhibition (IC50) in assay [1] is greater than 99.5 µM; in assay [2] it was greater than 100 µM.

Turning to `NCc1cccc(NC(=O)c2cccc3c2O[C@H](c2ccccc2)C(=O)N3)c1`, the values for the IC50 in assay [1] and in assay [2] were greater than 99.5 µM and greater than 100 µM, respectively.

As for `NCc1cccc(NC(=O)c2cc(C(F)(F)F)ccc2SC2CCCC2)c1`, the IC50 in assay [1] was greater than 99.5 µM; in assay [2], greater than 100 µM.

As for `CCOc1cccc(-c2ccc(S(=O)(=O)Nc3cc4c(cc3C(=O)O)CCC4)cc2)c1`, the IC50 in assay [1] came to 8.67 µM; in assay [2] it was 11.5 µM.

For `Cc1ccc(Sc2ncccc2C(=O)Nc2cccc(CN)c2)cc1C`, the IC50 in assay [1] is greater than 99.5 µM; in assay [2] it was greater than 100 µM.

As to `NCc1cccc(NC(=O)[C@H](NC(=O)OCc2ccccc2)C2CCN(C(=O)Cn3ccnc3)CC2)c1`, the IC50 in assay [1] was greater than 99.5 µM; in assay [2] it was greater than 100 µM.

`CC(C)c1nn(-c2ccccc2)cc1C(=O)Nc1cccc(CN)c1`: the IC50 in assay [1] is greater than 99.5 µM; in assay [2] it was greater than 100 µM.

As for `NCc1cccc(NC(=O)c2cc(C3CC3)n3nccc3n2)c1`, the half-maximal inhibitory concentration (IC50) was greater than 99.5 µM in assay [1] and greater than 100 µM in assay [2].

As to `CC[C@H](C(=O)Nc1cccc(CN)c1)n1cc(Br)c(C(F)(F)F)n1`, the figures for the IC50 in assay [1] and in assay [2] were greater than 99.5 µM and greater than 100 µM, respectively.

As for `O=C1Nc2ccccc2[C@H]1N1CCC(c2nc3ccccc3s2)CC1`, the IC50 was greater than 99.5 µM in assay [1] and greater than 100 µM in assay [2].

Regarding `O=C(Nc1cc(Cl)cc(C(=O)NCC[C@H]2COCCN2)c1)OCc1ccccc1`, the IC50 is greater than 99.5 µM in assay [1] and greater than 100 µM in assay [2].

Regarding `CC(C)(C)Cn1c(=O)[nH]c2cccc(C(=O)Nc3cccc(CN)c3)c21`, the results for the half-inhibitory concentration (IC50) in assay [1] and in assay [2] were greater than 99.5 µM and greater than 100 µM, respectively.

Turning to `CC(C)(C)NS(=O)(=O)c1cccc(C(=O)Nc2cccc(CN)c2)c1`, the IC50 in assay [1] was greater than 99.5 µM; in assay [2], greater than 100 µM.

For the compound `Cn1nc(C2CC2)c2c(C(=O)Nc3cccc(CN)c3)cc(C3CC3)nc21`, the IC50 is greater than 99.5 µM in assay [1] and greater than 100 µM in assay [2].

In the case of `COCCCC(=O)N1CCC([C@H](NC(=O)OCc2ccccc2)C(=O)Nc2cccc(CN)c2)CC1`, the IC50 in assay [1] was greater than 99.5 µM; in assay [2], greater than 100 µM.

As for `NCc1cccc(NC(=O)c2cc(C3CC3)nn2-c2ccccc2)c1`, the values for the IC50 in assay [1] and in assay [2] were greater than 99.5 µM and greater than 100 µM, respectively.

Consider `CC(C)(C#N)c1cc(C(=O)Nc2cccc(CN)c2)cc(C(F)(F)F)c1`, for which the IC50 in assay [1] is greater than 99.5 µM; in assay [2], greater than 100 µM.

With `CCCn1nc(C)c2c(C(=O)Nc3cccc(CN)c3)cc(C)nc21`, the IC50 is greater than 99.5 µM in assay [1] and greater than 100 µM in assay [2].

Regarding `CCC1CN(C(=O)Cn2ccnc(N3CC[C@@H](CO)C3)c2=O)C1`, the concentration for half-maximal inhibition (IC50) in assay [1] was greater than 99.5 µM; in assay [2], greater than 100 µM.

Take `NCc1cccc(NC(=O)c2ccc(=O)n(Cc3ccccc3Cl)c2)c1`: the concentration for half-maximal inhibition (IC50) in assay [1] was greater than 99.5 µM; in assay [2] it was greater than 100 µM.

On to `C#Cc1cc(CN)ccc1NS(=O)(=O)c1ccc(Oc2ccccc2Cl)cc1`, for which the results for the IC50 in assay [1] and in assay [2] were greater than 99.5 µM and greater than 100 µM, respectively.

Take `Cc1ccc(S(=O)(=O)N2CCC([C@@H](NC(=O)OCc3ccccc3)C(=O)Nc3cccc(CN)c3)CC2)c(C)c1`: the IC50 was greater than 99.5 µM in assay [1] and greater than 100 µM in assay [2].

`Cc1ccc(C(=O)Nc2cccc(CN)c2)cc1NC(=O)Cc1ccncc1`: the IC50 was greater than 99.5 µM in assay [1] and greater than 100 µM in assay [2].

Take `c1cncc(-c2cccc(NCc3c[nH]c4ccccc34)c2)c1`: the values for the half-inhibitory concentration (IC50) in assay [1] and in assay [2] were greater than 99.5 µM and greater than 100 µM, respectively.

As for `NCc1cccc(NC(=O)c2cc(C(F)(F)F)nn2CC2CCC2)c1`, the IC50 in assay [1] is greater than 99.5 µM; in assay [2] it was greater than 100 µM.

As for `NCc1cccc(NC(=O)c2cc(C3CC3)n3nc(C(F)(F)F)cc3n2)c1`, the IC50 in assay [1] was greater than 99.5 µM; in assay [2] it was greater than 100 µM.

In the case of `NCc1cccc(NC(=O)c2c(C(F)F)nc3cnccn23)c1`, the figures for the IC50 in assay [1] and in assay [2] were greater than 99.5 µM and greater than 100 µM, respectively.

Regarding `Cc1ccc(NC(=O)c2cc(Cl)ccc2Cl)c(C(=O)Nc2cccc(CN)c2)c1`, the 50% inhibitory concentration (IC50) was greater than 99.5 µM in assay [1] and greater than 100 µM in assay [2].

Take `O=c1[nH]c2cccc(N3CCN(Cc4c[nH]c5ccccc45)CC3)c2o1`: the IC50 in assay [1] was greater than 99.5 µM; in assay [2] it was greater than 100 µM.

In the case of `CN(c1ccc(Oc2ccccc2Cl)cc1)S(=O)(=O)c1cc(F)c(Cl)cc1C(=O)O`, the 50% inhibitory concentration (IC50) in assay [1] is 65.4 µM; in assay [2] it was 46.5 µM.

With `c1ccc2c(CNC3CCN(Cc4cscn4)CC3)c[nH]c2c1`, the IC50 was greater than 99.5 µM in assay [1] and greater than 100 µM in assay [2].

With `CCCCCn1cc(C(=O)Nc2cccc(CN)c2)c2ccccc21`, the IC50 in assay [1] is greater than 99.5 µM; in assay [2], greater than 100 µM.

Regarding `Cc1cc(C(=O)Nc2cccc(CN)c2)nc2c(C(C)C)cnn12`, the IC50 in assay [1] was greater than 99.5 µM; in assay [2], greater than 100 µM.

`Cc1noc(C)c1Cc1ccc(C(=O)Nc2cccc(CN)c2)o1`: the IC50 in assay [1] is greater than 99.5 µM; in assay [2], greater than 100 µM.

Take `NCc1cccc(NC(=O)c2nn(-c3ccc(Cl)c(F)c3)c3c2CCC3)c1`: the IC50 in assay [1] is 72.7 µM; in assay [2], greater than 100 µM.

For the compound `CCC[C@H](Oc1ccc(Cl)cc1C)C(=O)Nc1cccc(CN)c1`, the values for the half-inhibitory concentration (IC50) in assay [1] and in assay [2] were greater than 99.5 µM and greater than 100 µM, respectively.
